Experimental findings from ChEMBL document CHEMBL1130257, “(Aryloxy)alkylamines as selective human dopamine D4 receptor antagonists: potential antipsychotic agents” (J Med Chem, 1997) are described below.

In one test the target is T1, D(4) dopamine receptor (Homo sapiens, UniProt P21917).
T1 sequence (P21917 whole entry): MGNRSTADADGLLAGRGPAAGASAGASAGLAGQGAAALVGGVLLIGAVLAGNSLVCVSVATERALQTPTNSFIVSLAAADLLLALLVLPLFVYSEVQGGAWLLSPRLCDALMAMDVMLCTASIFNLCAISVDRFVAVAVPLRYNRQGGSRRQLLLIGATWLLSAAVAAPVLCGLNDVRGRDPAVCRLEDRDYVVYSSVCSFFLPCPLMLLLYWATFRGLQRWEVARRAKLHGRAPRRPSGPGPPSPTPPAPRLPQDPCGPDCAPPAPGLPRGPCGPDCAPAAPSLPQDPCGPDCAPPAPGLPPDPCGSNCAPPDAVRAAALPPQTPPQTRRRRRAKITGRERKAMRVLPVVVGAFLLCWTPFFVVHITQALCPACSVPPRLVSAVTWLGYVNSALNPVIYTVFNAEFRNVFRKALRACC
Briefly: biochemical.

The next test has as its target D(3) dopamine receptor (Homo sapiens, UniProt P35462). The experiment in a line: biochemical.

D(3) dopamine receptor, sequence (P35462 whole entry): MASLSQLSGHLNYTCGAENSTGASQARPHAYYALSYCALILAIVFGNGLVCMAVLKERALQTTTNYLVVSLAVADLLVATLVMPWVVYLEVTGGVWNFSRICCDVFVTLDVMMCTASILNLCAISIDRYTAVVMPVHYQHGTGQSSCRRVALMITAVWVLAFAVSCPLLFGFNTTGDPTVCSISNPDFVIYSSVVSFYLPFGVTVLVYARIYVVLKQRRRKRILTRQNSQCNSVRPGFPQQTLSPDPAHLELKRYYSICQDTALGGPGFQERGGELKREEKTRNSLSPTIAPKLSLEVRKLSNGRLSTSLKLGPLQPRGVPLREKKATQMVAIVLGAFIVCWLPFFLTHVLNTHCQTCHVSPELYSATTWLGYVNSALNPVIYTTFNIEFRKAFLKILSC
Description for D(3) dopamine receptor: Binding affinity against cloned human dopamine receptor D3 expressed in Chinese hamster ovary (CHO) K-1 cells by displacement of [3H]spiperone.
Description for D(4) dopamine receptor: Binding affinity to recombinant human dopamine receptor D4 expressed in CHO cells by displacement of [3H]spiperone

Broadly, the Ki is a measure of affinity in units of concentration, obtained from inhibition or displacement. Read a low Ki as higher affinity. Regarding `Clc1ccc(SCCNCCCOc2ccccc2)cc1`, the Ki at D(4) dopamine receptor is 33 nM. As to `Cc1ccc(CCCNCCCOc2ccccc2)cc1`, on D(4) dopamine receptor, the Ki was 4.7 nM. The same measure, in the same setting: the same measure for `Clc1cccc(OCCNCCCOc2ccccc2)c1`: 0.31 nM. Take `Cc1ccccc1OCCNCCCOc1ccccc1`: the Ki on D(4) dopamine receptor was 74 nM. Compared with the last compound, the Ki is about 240-fold higher. On to `Cc1ccc(OCCNCCCSc2ccccc2)cc1`, for which the Ki stood at 0.8 nM at D(4) dopamine receptor and 56 nM on D(3) dopamine receptor. The matching figures for `Cc1ccc(OCCNCCCOc2cccc(C)c2)cc1`: 1.2 nM and 192 nM. Take `Cc1ccc(OCCNCCCOc2ccccc2C)cc1`: the Ki at D(4) dopamine receptor came to 1.1 nM; at D(3) dopamine receptor, 381 nM. `Cc1ccc(OCCNCCCOc2ccc(F)cc2)cc1`: the Ki at D(4) dopamine receptor was found to be 0.96 nM; at D(3) dopamine receptor it was 232 nM. For `Cc1ccc(OCCNCCCOc2ccccc2)cc1C`, the values for the Ki at D(4) dopamine receptor and at D(3) dopamine receptor were 0.35 nM and 73 nM, respectively. The matching figures for `O=[N+]([O-])c1ccc(OCCNCCCOc2ccccc2)cc1`: 4.4 nM and 345 nM. Consider `Cc1ccc(OCCNCCCOc2ccccc2)cc1Cl`, for which the inhibition constant Ki at D(4) dopamine receptor is 0.52 nM; at D(3) dopamine receptor it was 3.9 nM. On to `Clc1ccc(OCCNCCCSc2ccccc2)cc1`, for which the values for the Ki on D(4) dopamine receptor and at D(3) dopamine receptor were 1.4 nM and 95 nM, respectively. Turning to `O=C(O)c1ccc(OCCNCCCOc2ccccc2)cc1`, at D(4) dopamine receptor, the Ki was greater than 1000 nM. With `Cc1ccc(OCCCNCCOc2ccccc2)cc1`, at D(4) dopamine receptor, the Ki is 2.7 nM. `Cc1ccc(OCCCNCCOc2ccc(C)cc2)cc1`: the figures for the Ki at D(4) dopamine receptor and at D(3) dopamine receptor were 11 nM and 235 nM, respectively. Consider `Oc1ccc(OCCNCCCOc2ccccc2)cc1`, for which the Ki at D(4) dopamine receptor was 3.1 nM; at D(3) dopamine receptor it was 236 nM. As for `COc1ccc(OCCNCCCOc2ccccc2)cc1`, the figures for the Ki at D(4) dopamine receptor and at D(3) dopamine receptor were 5.4 nM and 369 nM, respectively. `Cc1ccc(SCCNCCCOc2ccccc2)cc1`: the affinity on D(4) dopamine receptor, expressed as Ki, was 30 nM.

In the case of `Clc1ccccc1OCCNCCCOc1ccccc1`, the Ki at D(4) dopamine receptor turned out to be 4.4 nM; on D(3) dopamine receptor it was 17 nM. As to `Fc1ccc(OCCCNCCOc2ccc(Cl)cc2)cc1`, the Ki on D(4) dopamine receptor was determined as 0.84 nM; at D(3) dopamine receptor, 98 nM. In the case of `Clc1ccc(OCCNCCCOc2ccc(Br)cc2)cc1`, the affinity on D(4) dopamine receptor corresponds to a Ki of 38 nM. This counts as double-digit nanomolar.

For the compound `Cc1cccc(OCCNCCCOc2ccccc2)c1`, on D(4) dopamine receptor, affinity was put at a Ki of 0.46 nM. For the compound `Cc1ccc(OCCCNCCOc2ccc(Cl)cc2)cc1`, the inhibition constant Ki turned out to be 5.6 nM on D(4) dopamine receptor and 177 nM on D(3) dopamine receptor. As for `c1ccc(OCCCNCCOc2ccccc2)cc1`, the Ki on D(4) dopamine receptor is 2 nM; on D(3) dopamine receptor, 136 nM.

With `Cc1ccc(OCCNCCCOc2ccccc2)cc1`, the values for the Ki at D(4) dopamine receptor and at D(3) dopamine receptor were 0.52 nM and 169 nM, respectively. For `Cc1ccc(OCCNCCCOc2ccc(Br)cc2)cc1`, the values for the Ki on D(4) dopamine receptor and at D(3) dopamine receptor were 27 nM and 1700 nM, respectively. For `c1ccc(CCCNCCCOc2ccccc2)cc1`, the values for the Ki at D(4) dopamine receptor and at D(3) dopamine receptor were 3.3 nM and 17 nM, respectively.
